In patent publication EP0434038A1, “Fused imidazole derivatives, their production and use” (Takeda Chemical Industries, Ltd., priority 1989, dated 1991):

How the values were obtained:
[1] = target: T1, A-II-receptor (Bos taurus, UniProt P25104); experiment: displacement of 125I-angiotensin II from bovine adrenal cortex membranes; assay type: binding, membrane fraction; conditions: for inhibition at 1 µM: read-out: Radioreceptor Assay (%) / 1X10⁻⁶M; for inhibition at 0.1 µM: read-out: Radioreceptor Assay (%) / 1X10⁻⁷M
T1 construct: An A-II-receptor was prepared from the membrane fraction of bovine adrenal cortex
T1 sequence (P25104 1-359): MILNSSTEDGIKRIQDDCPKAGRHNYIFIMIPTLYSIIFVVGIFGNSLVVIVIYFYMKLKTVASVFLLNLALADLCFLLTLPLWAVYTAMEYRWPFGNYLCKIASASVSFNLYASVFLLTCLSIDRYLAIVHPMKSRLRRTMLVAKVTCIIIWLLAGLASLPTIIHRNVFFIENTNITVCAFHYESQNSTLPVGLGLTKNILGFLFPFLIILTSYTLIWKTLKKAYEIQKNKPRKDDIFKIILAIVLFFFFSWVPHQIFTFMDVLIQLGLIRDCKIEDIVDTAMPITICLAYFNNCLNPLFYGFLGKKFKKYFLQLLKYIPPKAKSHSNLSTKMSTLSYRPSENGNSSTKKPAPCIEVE
Procedure: Inhibition of binding of angiotensin-II to angiotensin receptor
An experiment of inhibition on the binding of angiotensin-II (A-II) to A-II-receptor was conducted by modifying the method of Douglas et al. [Endocrinology, 102, 685-696 (1978)]. An A-II-receptor was prepared from the membrane fraction of bovine adrenal cortex.
The compound of the present invention (10⁻⁷M or 10⁻⁶M ) and ¹²⁵I-A-II (1.85 kBq/50 µl) were added to the receptor membrane fraction, and the mixture was incubated at room temperature for one hour. The receptor-bound and free ¹²⁵I-A-II were separated through a filter (Whatman GF/B filter), and the radioactivity of ¹²⁵I-A-II bound to the receptor was measured.

[2] = test system: Jcl : SD rats; experiment: inhibition of the pressor response to angiotensin II in rats, oral; assay type: in vivo; conditions: Rattus norvegicus, p.o.
From the text: Inhibitory effect of the compound of the present invention on pressor action of A-II
Jcl : SD rats (9 week old, male) were used. On the day previous to the experiment, these animals were applied with cannulation into the femoral artery and vein under anesthesia with pentobarbital Na. The animals were fasted but allowed to access freely to drinking water until the experiment was started. Just on the day of conducting the experiment, the artery cannula was connected with a blood-pressure transducer, and the average blood pressure was recorded by means of polygraph. Before administration of the drug, the pressor action due to intravenous administration of A-II (100 ng/kg) as the control was measured. The drugs were orally administered, and then, at each point of the measurement, A-II was administered intravenously, and the pressor action was similarly measured. By comparing the pressor action before and after administration of the drug, the percent inhibition by the drug on A-II-induced pressor action was evaluated.

inhibition at 1 µM [1] [%] | inhibition at 0.1 µM [1] [%] | SMILES | inhibition at 30 mg/kg [2] [%] | inhibition at 10 mg/kg ([2]; 10 mg/kg) [%]
81 | 43 | CCCCc1nc2nccnc2n1Cc1ccc(-c2ccccc2-c2nnn[nH]2)cc1 [compound 6, 2-Butyl-1-[[2'-(1H-tetrazol-5-yl)biphenyl-4-yl]methyl]imidazo[4,5-b]pyrazine, 0.4 H2O] | – | –
44 | 1 | CCCCc1nc2cnccc2n1Cc1ccc(-c2ccccc2-c2nnn[nH]2)cc1 [compound 13, 2-Butyl-1-[[2'-(1H-tetrazol-5-yl)biphenyl]-methyl]imidazo[4,5-c]pyridine, 0.2 H2O] | – | –
56 | 9 | CCCCc1nc2ccncc2n1Cc1ccc(-c2ccccc2-c2nnn[nH]2)cc1 [compound 14, 2-Butyl-3-[[2'-(1H-tetrazol-5-yl)biphenyl]-methyl]imidazo[4,5-c]pyridine, 0.2 H2O] | – | –
32 | 0 | CCCCc1nc2ncc(C)cc2n1Cc1ccc(-c2ccccc2-c2nnn[nH]2)cc1 [compound 16, 2-Butyl-6-methyl-1-[[2'-(1H-tetrazol-5-yl)-biphenyl-4-yl]methyl]imidazo[5,4-b]pyridine, 0.4 H2O] | – | –
84 | 50 | CCc1nc2cccnc2n1Cc1ccc(-c2ccccc2-c2nnn[nH]2)cc1 [compound 9, 2-Ethyl-3-[[2'-(1H-tetrazol-5-yl)biphenyl-4-yl]methyl]imidazo[4,5-b]pyridine, 1/2 EtOAc] | > 70 | –
75 | 32 | CCCCc1nc2cc(C)cnc2n1Cc1ccc(-c2ccccc2-c2nnn[nH]2)cc1 [compound 15, 2-Butyl-6-methyl-3-[[2'-(1H-tetrazol-5-yl)-biphenyl-4-yl]methyl]imidazo[5,4-b]pyridine, 0.3 H2O] | – | –
9 | 0 | CCCCc1nc2cc(Br)c(C)nc2n1Cc1ccc(-c2ccccc2-c2nnn[nH]2)cc1 [compound 24, 6-Bromo-2-butyl-5-methyl-3-[[2'-(1H-tetrazol-5-yl)biphenyl-4-yl]methyl]imidazo[5,4-b]pyridine] | – | –
92 | 63 | CCCCc1nc2cccnc2n1Cc1ccc(-c2ccccc2-c2nnn[nH]2)cc1 [compound 3, 2-Butyl-3-[2'-[(1H-tetrazol-5-yl)biphenyl-4-yl]methyl]imidazo[4,5-b]pyridine] | > 70 | 50 to 70
75 | 32 | CCCc1nc2ccc(OC)nc2n1Cc1ccc(-c2ccccc2-c2nnn[nH]2)cc1 [compound 23, 5-Methoxy-2-propyl-3-[[2'-(1H-tetrazol-5-yl)-biphenyl-4-yl]methyl]imidazo[4,5-b]pyridine, 0.3 H2O] | – | –
48 | 5 | CCCCc1nc2ncccc2n1Cc1ccc(-c2ccccc2-c2nnn[nH]2)cc1 [compound 4, 0.4 H2O] | – | –
